These results are taken from paper PMC7793531 (International Journal of Molecular Sciences, 2020).

pIC50: −log10 of the molar value. Starred links: 1 amine or outer side, 2 acyl side, 3 side chain; linkers in the order of their positions; H or OH if unused. Non-standard residues stand in square brackets, D forms with d. Residues, ends and D or L forms follow the SMILES beside them. Groups on a side chain read outwards from the residue. ξ: configuration not given here. *: point of attachment. Oic(3aξ,7aξ) = O=C(O)[C@@H]1CC2CCCCC2N1; X1 = N=C(N)NCCCC[C@H](N)CN*; Dab = NCC[C@H](N)C(=O)O; CO = O=C([*:1])[*:2]

In one test the target is T1, VEGF-A165/NRP-1 complex (Homo sapiens, UniProt O14786).
T1 construct: purchased R&D Systems
T1 sequence (O14786 22-641 limits assumed): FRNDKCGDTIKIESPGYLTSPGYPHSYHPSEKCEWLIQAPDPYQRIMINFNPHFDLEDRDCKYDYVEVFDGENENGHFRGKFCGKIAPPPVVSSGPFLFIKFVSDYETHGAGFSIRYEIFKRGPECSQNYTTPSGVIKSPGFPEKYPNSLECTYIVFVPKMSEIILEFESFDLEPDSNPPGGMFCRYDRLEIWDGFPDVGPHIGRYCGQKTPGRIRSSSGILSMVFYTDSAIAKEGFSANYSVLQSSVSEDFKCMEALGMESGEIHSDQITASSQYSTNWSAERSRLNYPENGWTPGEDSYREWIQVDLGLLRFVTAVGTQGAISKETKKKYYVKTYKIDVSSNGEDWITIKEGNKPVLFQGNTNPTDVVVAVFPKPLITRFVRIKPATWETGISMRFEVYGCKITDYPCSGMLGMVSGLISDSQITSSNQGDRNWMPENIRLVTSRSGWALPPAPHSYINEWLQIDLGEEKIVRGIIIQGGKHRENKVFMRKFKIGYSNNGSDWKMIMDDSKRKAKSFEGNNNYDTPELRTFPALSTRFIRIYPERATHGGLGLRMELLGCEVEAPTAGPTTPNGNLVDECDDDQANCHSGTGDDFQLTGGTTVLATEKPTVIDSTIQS
As to the kind of experiment: Competitive ELISA-like assay, inhibition of bt-VEGF-A165 binding to immobilized NRP-1. The following applies: recombinant human NRP-1, bt-VEGF-A165, chemiluminescence; read-out: IC50, VEGF-A165/NRP-1 complex inhibitory effect. As to the method:
Inhibitory activity of urea–peptide hybrids against VEGF-A165/NRP-1 complex formation was assessed with a screening ELISA-like assay. NRP-1 was immobilized on microplate wells by simple adsorption and urea–peptide hybrids competed for NRP-1 with biotinylated VEGF-A165 (bt-VEGF-A165). The amount of receptor bound bt-VEGF-A165 was visualized by its interaction with the streptavidin–horseradish peroxidase conjugate (strep-HRP) and the chemiluminescent substrate. The first analyzed group of compounds were analogues 1–3 with the urea bond between L1 and L2. […] The best hybrid in this group was compound 3, which had Lys^U (gDab) branching (where “g” corresponds to guanidinium group), but its IC50 value decreased only 2-fold. Therefore, we assume that no additional interactions between urea bond and the surface of the protein occurred. […] In the case of urea–peptide hybrids, the urea bond might be capable of forming additional hydrogen bonds with protein residues on the surface of NRP-1. The affinity of compounds may conceivably be affected by the colocation of the urea bond and the free amino group of hArg in the branching. In addition, for compounds 4–6, we can observe that decreasing the distance between the free amino group in the main chain and the urea bond in the branching has a positive effect on compounds’ affinity for NRP-1.
This method was previously described for NRP-1 [44, 45, 46]. Briefly, overnight coating at 4 °C of the flat bottom surface of a 96-well plate with 100 μL (200 ng/well) recombinant human NRP-1, NRP-2, VEGFR-1 or VEGFR-2 was followed by non-specific interactions blocking using 0.5% bovine serum albumin (BSA) in PBS. Next, 50 µL of urea–peptide hybrid in PBS and 50 µL (400 ng/mL) of human (bt)-VEGF-A165 in PBS containing 4 µg/mL of heparin were added respectively. Plates were incubated for 2 h at RT, and then washed and treated with streptavidin-horseradish peroxidase conjugate in PBS (1:8000). Next, 100 µL chemiluminescent substrate was added, and luminescence was quantified using Tecan Infinite F200Pro microplate reader (Männedorf, Switzerland). In a positive control (P) only (bt)-VEGF-A165 was present in wells. Not coated by receptor wells were treated as a negative control (N). Percentages of inhibition were calculated by the following formula:100% − [[(S − N)/(P − N)]∙100%](1) where S is the signal intensity measured in wells with urea–peptide hybrid. The IC50 of each urea–peptide hybrid was calculated using the nonlinear regression function with GraphPad Prism Version-5.01 (GraphPad Software, San Diego, CA, USA). Data are presented as log (inhibitor) versus normalized response-variable slope (Figure S16). Data are the means ± SEMs of two or three independent experiments, each performed in triplicate.
(In general: An ELISA detects its analyte on a solid surface through an enzyme-linked reagent.)

Test [1] concerns the target T2, VEGF-A165/VEGF-R1 complex (Homo sapiens, UniProt P17948).
T2 construct: purchased R&D Systems
As to the kind of experiment: Competitive ELISA-like assay, VEGF-A165/VEGF-R1 complex formation. The test is classed as binding. An excerpt:
Amino acid sequence homology for primary structures of NRP-1 and NRP-2 is 44% [81, 82]. Structural studies have shown that both receptors bind VEGF-A165 using a conserved binding pocket core, formed by the b1 subdomain loops. VEGF-A165 interacts also with VEGF-R1 and R2 receptors by different fragments encoded by exons 1–5 [84, 85]. Affinity studies were done using modified ELISA-like assay, performed in the same manner as affinity tests for NRP-1 after optimization of method for individual protein. […] However, this value is more than two times higher compared to VEGF-A165/NRP-1 complex inhibition.
This method was previously described for NRP-1 [44, 45, 46]. […] Next, 100 µL chemiluminescent substrate was added, and luminescence was quantified using Tecan Infinite F200Pro microplate reader (Männedorf, Switzerland). […] Percentages of inhibition were calculated by the following formula:100% − [[(S − N)/(P − N)]∙100%](1) where S is the signal intensity measured in wells with urea–peptide hybrid. The IC50 of each urea–peptide hybrid was calculated using the nonlinear regression function with GraphPad Prism Version-5.01 (GraphPad Software, San Diego, CA, USA). […]

T2 sequence (P17948 27-756 limits assumed, one chain of several): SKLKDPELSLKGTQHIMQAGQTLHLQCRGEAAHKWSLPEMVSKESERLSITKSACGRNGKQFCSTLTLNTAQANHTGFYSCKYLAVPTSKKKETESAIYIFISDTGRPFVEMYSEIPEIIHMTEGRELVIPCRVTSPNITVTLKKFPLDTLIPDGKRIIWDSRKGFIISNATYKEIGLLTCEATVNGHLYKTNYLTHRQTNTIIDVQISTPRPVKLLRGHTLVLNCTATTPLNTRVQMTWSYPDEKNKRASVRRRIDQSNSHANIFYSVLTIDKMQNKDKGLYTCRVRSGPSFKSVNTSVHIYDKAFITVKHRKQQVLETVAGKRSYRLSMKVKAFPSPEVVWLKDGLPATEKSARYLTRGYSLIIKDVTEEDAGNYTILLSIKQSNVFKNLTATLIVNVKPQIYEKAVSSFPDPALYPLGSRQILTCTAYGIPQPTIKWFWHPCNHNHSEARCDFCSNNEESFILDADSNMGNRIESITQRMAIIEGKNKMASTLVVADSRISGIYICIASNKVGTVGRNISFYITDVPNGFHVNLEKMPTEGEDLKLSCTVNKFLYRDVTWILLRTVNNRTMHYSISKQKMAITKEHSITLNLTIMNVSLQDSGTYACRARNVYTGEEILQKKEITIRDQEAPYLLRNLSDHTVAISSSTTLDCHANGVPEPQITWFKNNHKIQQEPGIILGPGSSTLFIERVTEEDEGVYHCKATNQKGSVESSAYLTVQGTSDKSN

Regarding `N=C(N)NCCCC[C@H](N)CNC(=O)NCC[C@H](N)C(=O)N[C@@H](CCN)C(=O)N1C2CCCCC2C[C@H]1C(=O)N[C@@H](CCCNC(=N)N)C(=O)O` (stereo partly drawn) [Compound 6, H-Dab(hArg^U)Dab-Oic-Arg-OH] (H-[Dab]([CO-X1])[Dab][Oic(3aξ,7aξ)]R-OH), the pIC50 on VEGF-A165/NRP-1 complex is 6.72. In addition, in test [1], the “IC50, VEGF-A165/VEGF-R1 complex formation” value is given as “no affinity”.
